Assay results from US12479866B2, “Boron-containing rho kinase inhibitors” (Percipiad, Inc., priority 2019, dated 2025).

Columns and labels:
AKT1 = AKT1 (Homo sapiens (Human), UniProt P31749); assay: AGC Kinase Selectivity Profiling (ADP-Glo); type: biochemical; settings: 1 μM compound; AGC Panel; read-out: Percent enzyme activity inhibition, AKT1
Description: ROCK1 (also called ROCK I, ROKβ, Rho-kinase β, or p160ROCK) and ROCK2 ((also known as ROCK II, ROKα, or Rho kinase) belong to AGC family of serine/threonine kinases. The group of AGC kinases consists of 63 evolutionarily related serine/threonine protein kinases comprising PDK1, PKB/Akt, SGK, PKC, PRK/PKN, MSK, RSK, S6K, PKA, PKG, DMPK, MRCK, ROCK, NDR, LATS, CRIK, MAST, GRK, Sgk494, and YANK, while two other families, Aurora and PLK, are the most closely related to the group (Leroux et al., AGC kinases, mechanisms of regulation and innovative drug development, Semin Cancer Biol. 2018 February; 48:1-17).

primary hTM cells = assay: RealTime-Glo MT cell viability assay in hTM cells; type: cell-based; settings: all concentrations and time points (24 h, 48 h, 72 h)
Description: Commercially available RealTime-Glo™ MT cell viability (Promega, catalog #G9712) and CellTox™ Green cytotoxicity (Promega, catalog #G8731) assays were used in assessing effect of compounds on primary hTM cell viability and cytotoxicity. The RealTime-Glo™ MT cell viability assay is a nonlytic, homogeneous, bioluminescent method that determines the number of viable cells in culture by measuring the reducing potential of cells and thus metabolism (MT). Viable cells reduce the proprietary pro-substrate to generate a substrate for NanoLuc® luciferase. This substrate diffuses from cells into the surrounding culture medium, where it is rapidly used by the NanoLuc® Enzyme to produce a luminescent signal. In a contrasting and complementary manner, CellTox™ Green cytotoxicity assay measures changes in membrane integrity that occur as a result of cell death. This assay system uses a proprietary asymmetric cyanine dye that is excluded from viable cells but preferentially stains the dead cells' DNA. The fluorescent signal produced by the dye binding to the dead-cell DNA is proportional to cytotoxicity.
Human™ cells were cultured and maintained as described in Example 12. Fifty μl cells (600 cells) in culture media containing compound, 25 μl media with RealTime-Glo™ MT cell viability assay reagent and 25 μl media with CellTox™ Green cytotoxicity assay reagent were plated in black, clear bottom 96-well plates. Light emitted by luciferase and fluorescence emitted by dye binding to DNA (excitation 485 nm and emission 525 nm) were measured at 24 h, 48 h, and 72 h after incubation using plate based luminescence and fluorescence plate readers.

CDK2/CyclinE1 = CDK2/CyclinE1 (Homo sapiens (Human), UniProt P24941); assay: Kinase Selectivity Profiling General Panel (ADP-Glo); type: biochemical; settings: 1 μM compound, read-out: Percent enzyme activity inhibition, CDK2/CyclinE1
Procedure: After this incubation, 5 μl of ADP-Glo™ reagent was added to 5 μl reaction and incubated for 40 minutes. Then, 10 μl of Kinase Detection Reagent added to all assay wells in the assay plate and incubated at room temperature for 30 minutes.

[1] = Octanol/buffer partition coefficient (log D7.4); type: physicochemical; settings: n-octanol / pH 7.4 phosphate buffer, read-out: log D at pH 7.4
Procedure: In a single incubation, 15 μL of a 10 mM DMSO solution of each test article was added to test tubes, which contained 0.75 mL of n-octanol and 0.75 mL of pH 7.4 phosphate buffer. Testosterone was also introduced to each tube as an internal control, also at a dosing concentration of 100 μM. These samples were gently mixed on a benchtop rotator for 1 hour at room temperature. The tubes were then removed from the rotator and the aqueous and organic phases were allowed to separate for 1 hour. […] As a methods control, the log D of testosterone was also measured at a satisfactory value.

[2] = tested on: New Zealand White rabbits; settings: 0.1 ml, 20 mg/ml in saline
Description: The right eye that was not treated served as the control. […] The eyes of initial and confirmatory test animals were examined with slit lamp for ocular lesions. […] The animals were also observed for clinical signs of toxicity, morbidity and mortality.

[3] = Solubility Assay #3, qualitative solubility in borate and citrate buffers; type: physicochemical; settings: borate and citrate buffers at a series of pH values
ROCK2 = ROCK2 (Homo sapiens (Human), UniProt O75116); assay: Stability in varied buffers and temperatures, measured by ROCK2 inhibition; type: physicochemical
Procedure: Stability in Varied Buffers and Temperatures. […] (room temperature), 37° C., 4° C., and −20° C. in water, 150 mM NaCl, pH 5 and 6 buffers, or buffers containing 150 mM NaCl. No visible precipitates were observed after storage.

Sequence of ROCK2 (O75116 whole entry): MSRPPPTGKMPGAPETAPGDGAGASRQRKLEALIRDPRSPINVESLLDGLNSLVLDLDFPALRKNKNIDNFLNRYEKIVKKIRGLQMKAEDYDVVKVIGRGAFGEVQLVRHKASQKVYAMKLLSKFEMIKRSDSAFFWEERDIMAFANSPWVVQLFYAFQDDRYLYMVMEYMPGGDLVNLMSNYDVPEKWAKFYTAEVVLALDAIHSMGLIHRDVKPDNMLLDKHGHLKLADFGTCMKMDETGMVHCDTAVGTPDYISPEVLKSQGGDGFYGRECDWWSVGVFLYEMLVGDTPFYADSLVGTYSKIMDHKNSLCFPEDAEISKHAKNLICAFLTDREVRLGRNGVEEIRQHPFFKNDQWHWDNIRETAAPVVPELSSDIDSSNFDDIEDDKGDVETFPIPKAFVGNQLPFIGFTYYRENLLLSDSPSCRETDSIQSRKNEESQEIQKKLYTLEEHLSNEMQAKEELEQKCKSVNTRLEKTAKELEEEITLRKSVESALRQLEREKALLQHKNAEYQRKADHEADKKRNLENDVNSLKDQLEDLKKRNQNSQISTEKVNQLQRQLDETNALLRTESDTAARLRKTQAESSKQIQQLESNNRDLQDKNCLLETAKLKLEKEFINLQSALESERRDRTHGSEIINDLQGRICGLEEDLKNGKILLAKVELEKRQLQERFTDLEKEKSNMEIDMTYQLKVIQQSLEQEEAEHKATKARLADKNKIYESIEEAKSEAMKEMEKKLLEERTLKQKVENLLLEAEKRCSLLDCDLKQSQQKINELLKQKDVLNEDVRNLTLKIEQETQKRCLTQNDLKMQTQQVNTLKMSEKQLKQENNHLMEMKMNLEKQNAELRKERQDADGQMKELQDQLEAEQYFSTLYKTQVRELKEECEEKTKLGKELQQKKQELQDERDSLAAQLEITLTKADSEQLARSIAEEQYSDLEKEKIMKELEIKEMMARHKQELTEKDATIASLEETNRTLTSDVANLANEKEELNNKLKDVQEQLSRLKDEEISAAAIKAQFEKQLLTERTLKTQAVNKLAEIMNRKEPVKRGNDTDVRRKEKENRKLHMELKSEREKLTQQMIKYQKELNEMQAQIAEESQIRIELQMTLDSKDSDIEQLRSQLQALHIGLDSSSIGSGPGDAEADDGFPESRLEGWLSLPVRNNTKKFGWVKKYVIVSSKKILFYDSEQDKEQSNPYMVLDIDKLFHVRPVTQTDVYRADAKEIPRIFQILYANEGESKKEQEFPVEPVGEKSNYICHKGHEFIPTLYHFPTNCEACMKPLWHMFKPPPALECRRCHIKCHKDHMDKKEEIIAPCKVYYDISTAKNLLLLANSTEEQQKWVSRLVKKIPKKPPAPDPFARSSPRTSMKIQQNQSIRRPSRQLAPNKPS
Sequence of AKT1 (P31749 whole entry): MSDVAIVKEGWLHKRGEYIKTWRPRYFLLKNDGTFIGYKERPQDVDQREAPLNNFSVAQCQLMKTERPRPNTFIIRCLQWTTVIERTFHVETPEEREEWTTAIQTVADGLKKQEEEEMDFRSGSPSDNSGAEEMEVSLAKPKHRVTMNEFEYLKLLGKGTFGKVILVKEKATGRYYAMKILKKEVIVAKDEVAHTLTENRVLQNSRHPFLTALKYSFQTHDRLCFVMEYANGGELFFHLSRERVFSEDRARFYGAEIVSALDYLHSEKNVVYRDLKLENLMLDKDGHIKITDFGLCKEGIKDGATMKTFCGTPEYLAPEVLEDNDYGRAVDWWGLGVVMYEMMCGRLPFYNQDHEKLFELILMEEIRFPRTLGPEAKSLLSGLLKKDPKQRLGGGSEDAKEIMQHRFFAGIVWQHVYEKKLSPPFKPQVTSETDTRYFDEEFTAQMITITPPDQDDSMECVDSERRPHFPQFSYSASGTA

Question: Which inhibition at 1 µM (AKT1) does the source give for Cl.Cl.NCC(C(=O)Nc1ccc2cnccc2c1)c1ccc(B(O)O)cc1 (stereo not shown) [Compound 10•2HCl] here?
Answer: 52%

Question: And the “Effect on viability (in words)” value (primary hTM cells)?
Answer: no effect on viability or membrane integrity

Question: What about the inhibition at 1 µM (CDK2/CyclinE1) of the same compound?
Answer: 11%

Question: And the logD [1]?
Answer: 0.822

Question: And the “clinical signs of toxicity, morbidity and mortality” value [2]?
Answer: No treatment-related adverse effects were noticed

Question: What about the “pH at which precipitation occurs” value [3] of the same compound?
Answer: ~8.5

Question: And the “% ROCK2 inhibition at 20 nM” value (ROCK2; 25 mM Borate pH 5 (0.5 mg/ml), 15 days at 23° C.)?
Answer: 31%

Question: What about the “% ROCK2 inhibition at 20 nM” value (ROCK2; 25 mM Borate, pH 5 (0.5 mg/ml), 15 days at −20° C.) of the same compound?
Answer: 32%

Question: What about the “% ROCK2 inhibition at 20 nM” value (ROCK2; 25 mM Borate, pH 5, 150 mM NaCl (0.5 mg/ml), 15 days at 23° C.) of the same compound?
Answer: 29%

Question: And the “% ROCK2 inhibition at 20 nM” value (ROCK2; 150 mM NaCl (0.5 mg/ml), 0 days at 23° C.)?
Answer: 35%

Question: And the “% ROCK2 inhibition at 20 nM” value (ROCK2; 150 mM NaCl (0.5 mg/ml), 15 days at 23° C.)?
Answer: 35%

Question: And the “% ROCK2 inhibition at 20 nM” value (ROCK2; 150 mM NaCl (2 mg/ml), 120 days at 4° C.)?
Answer: 31%

Question: And the “% ROCK2 inhibition at 20 nM” value (ROCK2; 150 mM NaCl (2 mg/ml), 120 days at 37° C.)?
Answer: 35%

Question: And the Stability in solution (ROCK2; 150 mM NaCl, 37° C. and 4° C.)?
Answer: stable for 4 months

Question: What about the “% ROCK2 inhibition at 20 nM” value (ROCK2; Water (0.5 mg/ml), 15 days at 23° C.) of the same compound?
Answer: 34%

Question: And the “% ROCK2 inhibition at 20 nM” value (ROCK2; Water (0.5 mg/ml), 15 days at −20° C.)?
Answer: 33%
